Values of other authors as cited in patent US20060257475A1, “Stable Sertraline Hydrochloride Formulation and Method” (Boehringer Ingelheim International GmbH, priority 2006, published 2006).

Experiments:
[1] = reported in U.S. Pat. No. 5,734,083
[2] = reported in U.S. Pat. No. 5,248,699

- Solubility [1]: extremely insoluble
- Stability among Forms I to V [2]: greatest stability of these five forms
SMILES: CN[C@H]1CC[C@@H](c2ccc(Cl)c(Cl)c2)c2ccccc21 [Form I, (1S-cis)-4-(3,4-Dichlorophenyl)-1,2,3,4-tetrahydro-N-methyl-1-napththalenamine]
- Thermodynamic stability relative to other crystalline forms ([2]; room temperature): more thermodynamically stable than Forms II, III, IV, and V
